Laboratory results taken from PMC11820905, “Rational Design, Synthesis, and In Vitro Activity of Heterocyclic Gamma-Butyrobetaines as Potential Carnitine Acetyltransferase Inhibitors” (Molecules, 2025).

Columns and labels:
[1] = target: T1, Carnitine acetyltransferase isolated from pigeon breast muscle (Columba livia, UniProt P52826); test: CAT inhibition, IC50 determination (DTNB/Ellman reaction, absorbance at 405 nm); type: biochemical; settings: c(L-carnitine) = 50.56 μM; 5 min preincubation at 37 °C; eight inhibitor concentrations, triplicate over three days
T1 construct: CAT (isolated from pigeon breast muscle, ammonium sulfate suspension, CAS Number: 9029-90-7); purchased Sigma-Aldrich; host or cells: pigeon breast muscle (tissue-purified enzyme)
T1 sequence (P52826 31-627): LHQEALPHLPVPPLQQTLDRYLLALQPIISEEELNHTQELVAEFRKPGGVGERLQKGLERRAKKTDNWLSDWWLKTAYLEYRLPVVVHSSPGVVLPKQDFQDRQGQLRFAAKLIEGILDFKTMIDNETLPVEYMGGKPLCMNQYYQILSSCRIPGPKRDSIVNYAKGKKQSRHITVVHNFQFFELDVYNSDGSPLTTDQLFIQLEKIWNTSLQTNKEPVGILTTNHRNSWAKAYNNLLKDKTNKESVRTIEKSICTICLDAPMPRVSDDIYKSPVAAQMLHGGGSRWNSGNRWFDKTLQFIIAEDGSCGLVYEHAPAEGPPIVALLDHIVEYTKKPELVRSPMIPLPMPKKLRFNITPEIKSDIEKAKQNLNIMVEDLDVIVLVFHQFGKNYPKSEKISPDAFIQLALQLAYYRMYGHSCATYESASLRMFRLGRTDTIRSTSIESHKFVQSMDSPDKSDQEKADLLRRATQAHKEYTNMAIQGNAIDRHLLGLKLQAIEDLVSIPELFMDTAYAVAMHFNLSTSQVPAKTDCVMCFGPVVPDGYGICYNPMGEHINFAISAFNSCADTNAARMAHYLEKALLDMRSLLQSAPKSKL
Text: To assess the impact of the synthesized compounds on CAT activity and establish the structure-activity relationship, we initially determined the concentration needed to reduce the enzyme activity by 50% (IC50) under the same reaction conditions. We slightly modified a method proposed by Marquis and Fritz, which allows for the quantification of the consumed L-carnitine by observing its conversion to acetyl L-carnitine using a reaction with 5,5′-dithiobis-(2-nitrobenzoic acid) (DTNB or Ellman’s reagent) and CoA to produce 2-nitro-5-thiobenzoic acid (TNB). We opted to determine the IC50 at a substrate concentration that yields a [S]/Km ratio of about 0.01 (c(L-carnitine) = 50.56 μM and Km = 3.0 mM) to ensure that the IC50 is virtually independent of [S]. We also used a kinetic approach, measuring the reaction rate over a time interval Δt, during which the dependence is linear (approximately 10–15% substrate conversion). The readings were taken within the first minute after the reaction began, and the degree of inhibition was determined as described in Section 3.3.1. The IC50 values for each compound were obtained by analyzing the percentage inhibition at eight different inhibitor concentrations, with each measurement conducted in triplicate over three consecutive days. The average values of the IC50 obtained are outlined in Figure 4.
(§1) Carnitine acetyltransferase isolated from pigeon breast muscle, ammonium sulfate suspension (CAS Number: 9029-90-7), with activity 71 U/mg protein (1U converts 1 μmol L-carnitine and 1 μmol AcCoA in Acetylcarnitine and free CoA in 1 min) was diluted with phosphate buffer (0.5 M, pH = 7.6) to obtain stock solution with concentration 24 U/mL. Ellman reagent was freshly prepared just before use by dissolving 25 mg DTNB in 5 mL 1 mM solution of Na2EDTA in phosphate buffer (0.5 M, pH = 7.6), the final concentration of DTNB in this solution being 12.8 mM. AcCoA, L-carnitine, and each of the tested compounds were dissolved in distilled water in order to obtain desired stock solutions with concentration c (AcCoA) = 348.0 μM and c (L-carnitine) = 303.4 μM (for IC50 determination). Tris-buffer solution was prepared by dissolving Tris. HCl in distilled water and pH was adjusted with NaOH to pH = 7.6, the final concentration of the solution being 1 M. The final volume of the reaction mixture was 300 μL, which included 50 μL of each stock solution of CAT, AcCoA, L-carnitine, DTNB, Tris-buffer, and test compound. In control probes, 50 μL distilled water was added instead of test compound. A mixture of CAT, AcCoA, DTNB, Tris-buffer, and test compounds were incubated for 5 min at 37 °C. The reaction was initiated by adding L-carnitine, and the reaction rate was monitored by measuring the absorbance at 405 nm.
Inhibition activity was assessed by calculating the reaction rate during the initial minute, within the linear range of A/t, utilizing the following formula:%Inh = 100 × ((ΔA/Δt)control − (ΔA/Δt) Inh)/((ΔA/Δt) control)
To obtain preliminary data for the IC50 values, we initially screened each compound at a final concentration of 5 mM. […] The half-maximal inhibitory concentration (IC50) was determined by plotting the response (A) against the concentration (c) of the inhibitor. All analyses were performed in triplicate over three consecutive days, and the corresponding IC50 values were averaged.

CAT = target: CAT; parameters: method as in PMID 19912061; settings: comparison value for the established drug; no kinetic study of it described here; no reference printed at the place (cf. ref 44); cited from earlier work
[2] = target: T1, Carnitine acetyltransferase isolated from pigeon breast muscle; test: CAT enzyme kinetics, mechanism of inhibition and Ki; type: biochemical
Protocol: Substrate concentrations were selected in the range of 0.2 to five times the Km value (Km = 0.3 mM) to facilitate effective inhibition detection at elevated levels while ensuring sufficient substrate availability for the reaction at increased inhibitor concentrations. […] The experiments enabled identification of the inhibition mechanism alongside calculations of Km, Vmax, and Ki. We utilized SigmaPlot version 12.5 (Systat Software Inc. San Jose, CA, USA), which incorporates modules for regression analysis and various inhibition models. The numerical results are summarized in Table 3, while the corresponding Lineweaver –Burk and Michaelis–Menten kinetic plots are available in the Supplementary Materials.
as §1, with “HCl in distilled water and pH was adjusted with NaOH to pH = 7.6, the final concentration of the solution being 1 M. The final volume of the reaction mixture was 300 μL, which included 50 μL of each stock solution of CAT, AcCoA, L-carnitine, DTNB, Tris-buffer, and test compound. In control probes, 50 μL distilled water was added instead of test compound. A mixture of CAT, AcCoA, DTNB, Tris-buffer, and test compounds were incubated for 5 min at 37 °C.” left out
The absorbance at 405 nm was measured every 6 s between the 30th second and the 3rd minute for all probes (in the linear range). The initial velocity (v0) was determined as the intercept of the velocity (v) versus time (t) graph. […]

Row | SMILES | IC50 [1] | further results
1 | CCOC(=O)CCC[N+]1(C)CCCC1 [Compound 1-ester, 1-(4-ethoxy-4-oxobutyl)-1-methylpyrrolidin-1-ium bromide] | 28.5 ± 0.6 mM | –
2 | CCOC(=O)CCC[N+]1(C)CCCCC1 [Compound 2-ester, 1-(4-ethoxy-4-oxobutyl)-1-methylpiperidin-1-ium bromide] | 22.8 ± 1.8 mM | –
3 | CCOC(=O)CCC[N+]1(C)CCOCC1 [Compound 3-ester, 4-(4-ethoxy-4-oxobutyl)-4-methylmorpholin-4-ium bromide] | 29.9 ± 1.5 mM | –
4 | C[N+]1(CCCC(=O)[O-])CCOCC1 [Morph-GBB, 4-(4-methylmorpholino-4-ium)butanoate] | 23.7 ± 2.2 mM | –
5 | C[N+]1(CCCC(=O)[O-])CCCCC1 [Pip-GBB, 4-(1-methylpiperidin-1-ium-1-yl)butanoate] | 5.78 ± 1.2 mM | –
6 | O=C([O-])CCC[n+]1ccccc1 [Pyr-GBB, 4-(pyridin-1-ium-1-yl)butanoate] | 43.6 ± 4.2 mM | –
7 | C[N+]1(CCCC(=O)[O-])CCCC1 [Pyrr-GBB, 4-(1-methylpyrrolidin-1-ium-1-yl)butanoate] | 14.1 ± 1.91 mM | –
8 | O=C([O-])CCC[n+]1ccc2ccccc2c1 [i-qui-GBB, 4-(isoquinolin-2-ium-2-yl)butanoate] | 2.24 ± 0.21 mM | Type of inhibition of CAT ([2]; best fit: highest R^2, lowest AIC): competitive inhibitor; Ki ([2]; competitive model, nonlinear regression (SigmaPlot), inhibitor 1.88 mM and 3.75 mM): 3.5 mM; Inhibition of CAT reaction rate versus blank samples ([2]; inhibitor concentration 0.94 mM): lack of inhibition

Now from value to molecule, other results behind:

Row | IC50 [1] | SMILES | further results
9 | 10.4 ± 1.5 mM | CN(C)c1cc[n+](CCCC(=O)[O-])cc1 [DMAP-GBB, 4-(4-(dimethylamino)pyridin-1-ium-1-yl)butanoate] | –
10 | 9.32 ± 0.47 mM | CC[N+](C)(C)CCCC(=O)[O-] [MeGBB, 4-(ethyldimethylammonio)butanoate, reference compound] | –
11 | 21.6 ± 1.4 mM | CCOC(=O)CCC[N+](C)(C)CC [MeGBB-ester, 4-ethoxy-N-ethyl-N,N-dimethyl-4-oxobutan-1-aminium bromide, reference compound] | –
12 | 11.4 mM | C[N+](C)(C)NCCC(=O)[O-] [Meldonium, reference compound] | Ki (CAT): 1.63 mM
13 | 14 ± 0.9 mM | Cn1cc[n+](CCCC(=O)[O-])c1 [Mim-GBB, 4-(1-methyl-1H-imidazol-3-ium-3-yl)butanoate] | –
